Where a name gives a salt, the structure may show the parent alone. One block for each compound: values may come before it.
Key:
Type in all cases: in vivo
DOPA decarboxylase = biological target: T1, DOPA decarboxylase (Rattus norvegicus, UniProt P14173); assay: [1-13C]DOPA breath test; conditions: rats
T1 construct: from tissue; host or cells: living rat (whole-animal breath test)
T1 sequence (P14173 1-480): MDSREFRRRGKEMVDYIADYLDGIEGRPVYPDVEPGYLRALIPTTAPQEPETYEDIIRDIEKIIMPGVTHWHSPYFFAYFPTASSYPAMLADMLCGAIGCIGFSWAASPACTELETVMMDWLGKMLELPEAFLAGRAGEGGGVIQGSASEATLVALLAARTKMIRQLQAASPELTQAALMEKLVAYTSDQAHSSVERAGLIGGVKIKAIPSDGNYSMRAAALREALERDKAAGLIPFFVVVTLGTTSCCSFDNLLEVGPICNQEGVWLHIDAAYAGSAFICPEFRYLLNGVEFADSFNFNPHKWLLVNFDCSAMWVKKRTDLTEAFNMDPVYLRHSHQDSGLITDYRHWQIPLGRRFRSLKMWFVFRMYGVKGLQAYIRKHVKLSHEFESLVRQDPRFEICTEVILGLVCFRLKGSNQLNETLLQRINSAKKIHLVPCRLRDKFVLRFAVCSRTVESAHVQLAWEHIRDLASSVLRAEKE
Description: The pharmacological effect of benserazide is the inhibition of DOPA decarboxylase. [1-^13C]DOPA (see Production Example 1) which is a substrate for DOPA decarboxylase is provided as a pharmacological effect diagnostic reagent and a screening reagent. Comparison was made in the [1-^13C]DOPA breath test on rats which were administered intraperitoneally with benserazide hydrochloride (Sigma) at a dose of 50 mg/kg three times (i.e., in the morning and evening of the day before the [1-^13C]DOPA breath test and 30 minutes before the breath test was started on the day of the test) (administration group) and rats without administration (control group).
The rats of the administration group and the control group which had been fasted overnight were fixed supinely under anesthesia. […] When the CO2 concentration stabilized, [1-^13C]DOPA was administered at a dose of 50 mg/kg through the femoral vein.
Output data from the ^13CO2 analyzer were AD-converted and input to a personal computer (Apple Power Macintosh 8500). […]
Δ^13C (‰) was calculated from the ^13C level in the exhaled CO2 at each time point (^13Ctmin) and the ^13C level in the standard CO2 (^13Cstd) according to the following equation: Δ^13C(‰)=[(^13Ctmin−^13C0min)/^13Cstd]×1000

α-glucosidase = assay: Glc-[U-13C]Glc breath test; conditions: rats, n=2
Description: The pharmacological effect of acarbose is the inhibition of α-glucosidase. Glc-[U-^13C]Glc (see Production Example 2) which is a substrate for α-glucosidase is provided as a pharmacological effect diagnostic reagent and a screening reagent.

pancreatic protease = assay: Bz-Arg-[1-13C]Ala breath test; conditions: rats
Description: The pharmacological effect of camostat mesylate is the inhibition of pancreatic protease. Bz-Arg-[1-^13C]Ala (see Production Example 3) which is a substrate for pancreatic protease is provided as a pharmacological effect diagnostic reagent and a screening reagent. […] The results of the Bz-Arg-[1-^13C]Ala breath test were as follows: in the both groups, the Δ^13C increased linearly until at the time point of 15 minutes after the administration; twenty minutes after the administration, the Δ^13C reached 41.29±7.49‰ in the control group (n=3), while the Δ^13C reached 27.64±4.86‰ in the administration group (n=3); thus, the Δ^13C decreased in the administration group (FIG. 7). From the results, it was confirmed that the function of the target enzyme for camostat mesylate was inhibited under the camostat mesylate administration conditions of the present example.

inhibition at 50 mg/kg (DOPA decarboxylase; rat, ip, benserazide 50 mg/kg i.p. three times, [1-13C]DOPA breath test, read-out: inhibition of the function of the target enzyme): ~100%
Δ13C (degree of increase of the 13C level in exhaled CO2) (DOPA decarboxylase; benserazide hydrochloride 50 mg/kg i.p. three times, [1-13C]DOPA 50 mg/kg femoral vein, 20 minutes after the administration): about 5 ‰
SMILES: NC(CO)C(=O)NNCc1ccc(O)c(O)c1O (stereo not shown) [benserazide, benserazide hydrochloride]

SMILES: C[C@H]1O[C@H](O[C@H]2[C@H](O)[C@@H](O)[C@@H](O[C@H]3[C@H](O)[C@@H](O)C(O)O[C@@H]3CO)O[C@@H]2CO)[C@H](O)[C@@H](O)[C@@H]1N[C@H]1C=C(CO)[C@@H](O)[C@H](O)[C@H]1O (stereo partly shown) [acarbose]
Δ13C in 20 minutes (α-glucosidase; acarbose 2 mg/kg oral concurrently with Glc-[U-13C]Glc 25 mg/kg oral): 37.06 ±0.16 ‰
Δ13C in 20 minutes (α-glucosidase; acarbose 4 mg/kg oral concurrently with Glc-[U-13C]Glc 25 mg/kg oral): 26.01 ±0.38 ‰
Δ13C in 20 minutes (α-glucosidase; acarbose 10 mg/kg oral concurrently with Glc-[U-13C]Glc 25 mg/kg oral): 9.86±0.66 ‰

SMILES: CN(C)C(=O)COC(=O)Cc1ccc(OC(=O)c2ccc(NC(=N)N)cc2)cc1 [camostat mesylate]
function of the target enzyme (pancreatic protease; camostat mesylate 20 mg/kg oral): inhibited
Δ13C twenty minutes after the administration (pancreatic protease; camostat mesylate 20 mg/kg oral concurrently with Bz-Arg-[1-13C]Ala 12.2 mg/kg oral, n=3): 27.64±4.86 ‰

Reference: patent US7404945B2, “Method of evaluating pharmacological effects of medicine” (Tokyo Gas Company Limited, priority 2002, dated 2008)
